Test system: human CD8+ T cells
Test: Human T cells stimulated with αCD3/αCD28 in presence of UA
Assay type: cell-based
Protocol: Splenic murine T cells were isolated from mice aged 6-20 weeks by negative selection with EasySep mouse T cell isolation kit (Stem cell) according to the manufacturer's instructions. To monitor T cell proliferation, purified T cells were loaded with CellTrace Violet (C34557 ThermoFisher Scientific). T cell activation was initiated using αCD3/CD28 activation beads (11456D; ThermoFisher Scientific) at a ratio of 25 μl dynabeads per 0.5×106 T-cells. Cells were activated with 25-50 μM Urolithin A (Tocris) or DMSO in T cell activation Medium (RPMI (ThermoFisher Scientific) 10% FBS (South America origin), 10 mM Hepes (Sigma), 1×Non-Essential Amino Acid, 1 mM Sodium Pyruvate, 50 µM β-Mercaptoethanol, 100 U/mL penicillin, 100 μg/mL streptomycin and 2 mM Glutamax (ThermoFisher Scientific) for the indicated durations. In selected experiments, cells were stimulated in the presence of inhibitors, namely TCFli (ICG-001; SelleckChem; […]) and PGC-lai (SR-18292, Sigma-Aldrich; […]). For subsequent analysis, activating beads were magnetically removed prior antibody staining. For human T cells, peripheral blood mononuclear cells were purified with a Ficoll-Paque (GE healthcare) gradient. T cells were enriched with EasySep Human T Cell Isolation Kit (StemCell) and activated with dynabead Human T-Activator CD3/CD28 for T Cell Expansion and Activation Kit (11131D; ThermoFisher Scientific), similar to murine T cell stimulation. When the subsequent activation and expansion of CAR T cells was studied, plates were coated with 1 μg/mL anti-human CD3 (αCD3; clone OKT3) and thawed PBMC were cultivated with […] anti-human CD28 (αCD28; 15E8, both Miltenyi Biotec) containing media for three days. (NutriT media (4Cell® Nutri-T media (Sartorius) containing 0.5% penicillin/streptomycin) supplemented with IL-7 (25 U/mL) and IL-15 […] (all Miltenyi Biotec)).
Tumors were minced and digested with Tumor & Tissue Dissociation Reagent (BD Horizon) for 30 min. The remaining organ pieces were filtered through a 70 µm cell strainer. Cells were then washed with PBS 1% BSA and 2 mM EDTA. […]

`O=c1oc2cc(O)ccc2c2ccc(O)cc12` [UA, Urolithin A] was tested, and the “TCF1 expression in human CD8+ T cells” value (after 48 hours) was “increased”, the “mitochondrial membrane potential of human CD8+ T cells” value (after 48 hours) was “decreased” and the “frequency of human TSCM cells (CD45RA+CCR7HiCD62L+CD95+CD8+)” value (five out of five individual donors, 48 h) was “increased the frequency”.
